Measurements from patent US20060141054A1, “Metal coordinated compositions” (priority 2004, published 2006).

Tests used:
[1] = Log D at pH 7.4 (octanol/water); type: physicochemical
Protocol: Log D is the log distribution coefficient at a particular pH (Equation 8). […] Log D=log10(Distribution Coefficient) Equation 8
(§1) Determination of pKa and log P was done by potentiometry and spectrophotometry. The potentiometric method includes the use of expert software to calculate pKa and log P from simple acid and base titrations of the analytes. The pKa was first determined by weighing approximately 2 mg of pure substance into an assay vial. […] The solution was then titrated with acid (0.5N HCl) or base (0.5N NaOH) to the final pH.
The log P was determined by a titration in the presence of octanol (water saturated). The pKa in water and the apparent pKa in the presence of octanol (poKa) were compared and the log P determined. Ion-pairing (partitioning of a charged species into octanol, termed log P^+ or log P^−) were determined with an additional titration in the presence of another volume of octanol. Using experimentally determined pKa and log P, a drug lipophilicity profile (log D. vs. pH) was calculated. The log D7.4 was determined from this profile at pH 7.4.

[2] = water, 0.15 m kcl
Protocol: as §1
(§2) A minimum of three ratios of water/DMSO was titrated to obtain psKa (apparent pKa in the presence of cosolvent). The aqueous pKa was determined by extrapolation using the Yasuda-Shedlovsky technique.

[3] = physchem; details: water, 0.15 m kcl
Protocol: as §1, §2

[4] = Equilibrium/stability constants of zinc complexes; type: physicochemical; details: approximated
[5] = Equilibrium/stability constants of magnesium complexes; type: physicochemical; details: estimated from literature precedents of similar compounds

N[C@@H](Cc1cc(I)c(Oc2ccc(O)c(I)c2)c(I)c1)C(=O)[O-].N[C@@H](Cc1cc(I)c(Oc2ccc(O)c(I)c2)c(I)c1)C(=O)[O-].[Zn+2] [Bis(triiodothyroninato)zinc]
Log D7.4 [1]: 3.43 | pKa (first listed) [2]: 6.66 | pKa (second listed) [2]: 6.42

N[C@@H](Cc1cc(I)c(Oc2ccc(O)c(I)c2)c(I)c1)C(=O)O [Triiodothyronine]
logD ([1]; Method Potentiometric, read-out: Log D7.4): 2.8 | pKa ([3]; pKa (first listed)): 8.41 | pKa ([3]; pKa (second listed)): 8.07

N[C@@H](Cc1ccccc1)C(=O)O.[Zn] [phenylalanine-zinc]
cumulative binding constant, β2 [4]: 8.5

Bis(acycloguanosinato)magnesium
log Keq (estimated) [5]: 1.6
